The values below come from ChEMBL document CHEMBL1201862, “PubChem BioAssay data set” (2004).

Holding throughout (assay): DTP human tumour cell line panel, 48 h
The test system of test [1] is ACHN.
The test system of test [2] is CAKI-1.
For test [3], the system named is HCC 2998.
Test [4] concerns HCT-15.
The subject of test [5] is IGROV-1.
Test [6] has as its system KM12.
Test [7] relates to NCI-H460.
For test [8], the system named is OVCAR-3.
The test system of test [9] is OVCAR-4.
Test [10] concerns RXF 393.
Test [11] relates to SF-539.
Test [12] relates to SK-MEL-28.
In test [13] the test system is SK-MEL-5.
For test [14], the system named is SK-OV-3.
The test system of test [15] is TK-10.
Test [16] has as its system UACC-62.
The test system of test [17] is HL-60.

Structures are written as SMILES.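 Step 1: Grow cells in 96-well plates. Step 2: Expose to compound for 48 hours at 5 concentrations. Step 3: Interpolate endpoints linearly; if unreached, use highest concentration. GI50 is the concentration that inhibits growth by half.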 Active and inactive are the calls of the source. Cut-off read from the data, not from the text of the source: active = GI50 up to about 1.1 µM and inactive = higher.

With `N#CC1=C(c2ccccc2)OC2(N)OC(c3ccccc3)=C(C#N)C12C#N` (stereo unspecified), the GI50 in test [1] was > 100 µM (inactive); in test [2], 84.1 µM (inactive); in test [3], > 100 µM (inactive); in [4], above 100 µM; in [5], > 100 µM (inactive); in test [6], > 100 µM (inactive). For the same compound, the GI50 in test [7] is > 100 µM (inactive); in test [8], 36.9 µM (inactive); in [9], 60.3 µM (inactive); in test [10], 69.3 µM (inactive); in test [11], > 100 µM (inactive); in test [12] it was > 100 µM (inactive). Moreover, the GI50 in test [13], in [14], in test [15] and in [16] was > 100 µM (inactive) throughout.
On to `CN(C(=O)C12C3C4C5C3C1(C(=O)O)C5C42)C(C)(C)C` (stereo unspecified), for which the GI50 in [1] was > 100 µM (inactive); in test [2] it was > 100 µM (inactive); in test [3] it was > 100 µM (inactive); in [4], 33.2 µM; in test [17], 17.1 µM (inactive); in test [5], > 100 µM (inactive). Further, the GI50 in test [6], in [7], in test [8], in test [9], in test [11] and in test [12] was > 100 µM (inactive) throughout. Besides, the GI50 in [13], in test [14], in [15] and in test [16] was > 100 µM (inactive) throughout.
With `CN(C)/N=N/c1ccc(S(N)(=O)=O)cc1`, the GI50 was > 100 µM (inactive) in test [1]; > 100 µM (inactive) in [2]; > 100 µM (inactive) in test [3]; above 100 µM in test [4]; > 100 µM (inactive) in test [5]; > 100 µM (inactive) in test [6]. Also, the GI50 in [7], in test [8], in [9], in test [11], in [12] and in test [13] was > 100 µM (inactive) throughout. Moreover, the GI50 in [14], in test [15] and in test [16] was > 100 µM (inactive) in each case.
Take `CCOC(=O)[C@H]1Nc2ccc(O)cc2C2c3ccccc3CC21` (stereo partly specified): the GI50 in test [1] was 51.4 µM (inactive); in test [2], > 100 µM (inactive); in test [3], 49 µM (inactive); in test [4], 72.8 µM; in test [5], > 100 µM (inactive); in test [6], > 100 µM (inactive). For the same compound, the GI50 in [7] is > 100 µM (inactive); in test [8], 35.2 µM (inactive); in test [9], 42.1 µM (inactive); in [10], 17.7 µM (inactive); in test [11] it was > 100 µM (inactive); in test [12] it was 34.8 µM (inactive). For the same compound, the GI50 in [13] is 33.3 µM (inactive); in test [15], > 100 µM (inactive); in [16], 51.3 µM (inactive).
For `Nc1nc2c(ncn2CCCC(c2ccccc2)P(=O)(O)O)c(=O)[nH]1` (stereo unspecified), the GI50 was > 100 µM (inactive) in test [1]; > 100 µM (inactive) in [2]; > 100 µM (inactive) in test [3]; above 100 µM in test [4]; > 100 µM (inactive) in test [17]; > 100 µM (inactive) in test [5]. The GI50 in [6], in [7], in test [8], in test [11], in test [12] and in test [13] was > 100 µM (inactive) in each case. For the same compound, the GI50 in [14], in test [15] and in [16] was > 100 µM (inactive) in each case.
For the compound `Cc1ccc(S(=O)(=O)C2CC2(Cl)Cl)cc1` (stereo unspecified), the GI50 in test [1] was 25.6 µM (inactive); in [2], 26.6 µM (inactive); in test [3] it was 44.4 µM (inactive); in test [4] it was 23.4 µM; in test [5], 26.9 µM (inactive); in test [6] it was 66.2 µM (inactive). Further, the GI50 is 50.1 µM (inactive) in test [7]; 19.9 µM (inactive) in test [8]; 0.0162 µM (active) in test [9]; 15.1 µM (inactive) in test [10]; 31.4 µM (inactive) in test [11]; 53.1 µM (inactive) in test [12]. Besides, the GI50 in test [14] is > 100 µM (inactive); in test [15] it was > 100 µM (inactive); in test [16] it was 27.4 µM (inactive).
As to `COc1nc2c(c(O)c(C)c(=O)n2OC2OCC(OC(C)=O)C(OC(C)=O)C2OC(C)=O)c(=O)n1C` (stereo unspecified), the GI50 in test [1] is > 100 µM (inactive); in test [3], > 100 µM (inactive); in test [4], above 100 µM; in test [5], > 100 µM (inactive); in test [6], > 100 µM (inactive); in test [7], > 100 µM (inactive). Further, the GI50 is > 100 µM (inactive) in [9]; > 100 µM (inactive) in test [10]; 60.4 µM (inactive) in test [11]; > 100 µM (inactive) in test [12]; > 100 µM (inactive) in test [13]; > 100 µM (inactive) in test [15]. In test [16], the GI50 was > 100 µM (inactive).
For `C[C@@H]1OC(=O)N2CCCC(=C3SCCCS3)C12` (stereo partly specified), the GI50 in test [1] was 93.5 µM (inactive); in test [4], above 100 µM; in test [5], 90.8 µM (inactive); in [6] it was 60.3 µM (inactive); in test [7], > 100 µM (inactive); in test [8], > 100 µM (inactive). Moreover, the GI50 was > 100 µM (inactive) in [9]; 68.4 µM (inactive) in [10]; > 100 µM (inactive) in test [11]; > 100 µM (inactive) in test [12]; > 100 µM (inactive) in test [14]; > 100 µM (inactive) in test [15]. Also, in [16], the GI50 was 56.1 µM (inactive).
In the case of `CCOc1ccc2c(c1)[n+]([O-])c(C(N)=O)c(N)[n+]2[O-]`, the GI50 in test [1], in test [2], in test [17], in test [5], in test [6] and in test [7] was > 100 µM (inactive) in each case. Further, the GI50 in [8], in [9], in [10], in [11], in test [12] and in [13] was > 100 µM (inactive) throughout. For the same compound, the GI50 in test [14] was > 100 µM (inactive).
With `NC1=NCC(c2ccccn2)C1c1ccc(F)cc1` (stereo unspecified), the GI50 in [1], in test [2], in [3], in test [5], in test [6] and in test [7] was > 100 µM (inactive) throughout. For the same compound, the GI50 in test [8], in test [9], in test [10], in test [11], in [12] and in [13] was > 100 µM (inactive) in each case. Moreover, the GI50 in [14], in test [15] and in test [16] was > 100 µM (inactive) in each case.

As usually defined, the GI50 is the concentration giving 50% growth inhibition.
